{
  "source": "paper PMC9319510",
  "about": "“The Multistage Antimalarial Compound Calxinin Perturbates P. falciparum Ca^2+ Homeostasis by Targeting a Unique Ion Channel” (Pharmaceutics, 2022)",
  "test_system": "T1, voltage T-type Ca2+ channel (α1H; Cav3.1)",
  "T1 construct": "gene CACNA1H; α1H cDNA in pcDNA3, expressed in HEK 293 cells; Cav3.1 would be α1G (CACNA1G)",
  "test": "whole-cell patch clamp",
  "assay_type": "cell-based, Homo sapiens",
  "conditions": "HEK-293 cells stably expressing α1H; 5 mM CaCl2 external, pH 7.4; Vh -90 mV; positive control, data not shown",
  "note": "pIC50: −log10 of the molar value.",
  "data": [
    {"compound": "CN1CCN(c2ncc(-c3cc(Cl)cc(Cl)c3Cl)c(N)n2)CC1", "note": "[Sipatrigine]", "values": [
      {"measurement": "pIC50", "value": "~4.52"}
    ]}
  ]
}
